Measurements published in patent US20210138012A1, “COMPOSITION FOR PREVENTING, AMELIORATING, OR TREATING RESPIRATORY DISEASE COMPRISING SIRAITIA GROSVENORII EXTRACT AS EFFECTIVE COMPONENT” (KOREA INSTITUTE OF ORIENTAL MEDICINE, priority 2018, published 2021).

How the values were obtained:
[1] = test system: IL-13; experiment: IL-13 production in BALF (ELISA), animal asthma model; assay type: in vivo, Balb/c mouse; details: OVA-10 mg/kg
Procedure: (§1) Test was carried out by using an animal model which has been induced to have bronchial asthma by ovalbumin (OVA). As for the test animal, a 7-week old male Balb/c mouse was obtained from Jackson Laboratory (Bar Harbor, Me., USA), and used for the test after acclimation for 1 week. […] On day 3 and day 10 after intraperitoneally administering the first OVA, 2 mg of OVA were administered to the mouse via intratracheal injection. Then, from day 21 onwards for 4 weeks, the mouse was allowed to inhale OVA for 30 minutes by using a ultrasonic sprayer (NE-U12, Omron Co., Tokyo, Japan) (week 1 to week 3; exposed to 1% OVA, week 4; exposed to 2% OVA). Forty-eight hours after the last exposure to OVA, blood was taken from the anesthetized mouse, which was then subjected to autopsy to have observation of a pathological change. […]
(§2) Production amount of interleukins (IL-4, IL-5, and IL-13) in BALF separated from each test animal was measured by a commercially available kit for enzyme-linked immunosorbent assay (ELISA) (R&D System, USA). Analysis of each cytokine was carried out according to the experimental method provided by the manufacturer, and the absorbance at 450 nm was measured using an ELISA reader.

[2] = test system: IL-4; experiment: IL-4 production in BALF (ELISA), animal asthma model; assay type: in vivo, Balb/c mouse; details: OVA-10 mg/kg
Procedure: as §1, §2

[3] = test system: IL-5; experiment: IL-5 production in BALF (ELISA), animal asthma model; assay type: in vivo, Balb/c mouse; details: OVA-10 mg/kg
Procedure: as §1, §2

[4] = test system: BEAS-2B pulmonary bronchial cells; experiment: Cytotoxicity in BEAS-2B pulmonary bronchial cells using CCK-8; assay type: cell-based, human; details: 0.1 μM
Procedure: (§3) BEAS-2B cells (ATCC, USA), which are human bronchial epithelial cells, were cultured in Dulbecco's modified eagle medium (DMEM) added with fetal bovine serum (FBS) and penicillin-streptomycin (PS). BEAS-2B cells were cultured again for 18 hours in a 96-well plate (5×10^4 cells/well) containing DMEM 10% medium. The medium was subsequently removed and replaced with serum-free DMEM.

[5] = test system: TARC; experiment: Inhibition of TARC secretion in TNF-α + IFN-γ + IL-4-treated BEAS-2B cells (ELISA); assay type: cell-based; details: Homo sapiens, TNF-α + IFN-γ + IL-4, 24 hours, read-out: Inhibition rate (%) of TARC secretion
Procedure: as §3
Meanwhile, to measure the secretion amount of TARC, BEAS-2B cells were simultaneously treated with TNF-α (50 ng/ml), IFN-γ (10 ng/ml), and IL-4 (50 ng/ml), and, after culture for 24 hours, the measurement was made by using ELISA kit (R&D systems, USA).

[6] = test system: RANTES; experiment: Inhibition of RANTES secretion in TNF-α-treated BEAS-2B cells (ELISA); assay type: cell-based; details: Homo sapiens, 10 ng/ml TNF-α, 24 hours, read-out: Inhibition rate (%) of RANTES secretion
Procedure: as §3
After that, to measure the secretion amount of RANTES, the cells were simultaneously treated with a test sample and TNF-α (10 ng/ml) and cultured for 24 hours. Secretion amount of RANTES present in cell supernatant was measured by using ELISA kit (R&D systems, USA) according to the manufacturer's protocol. As a positive control group, 0.1 μM dexamethasone was used.

`CC(C)(O)c1ccccc1CC[C@@H](SCC1(CC(=O)O)CC1)c1cccc(/C=C/c2ccc3ccc(Cl)cc3n2)c1` [Montelukast, montelukast] gave an IL-13 [1] of 89.58 ± 9.46 pg/mL, an IL-4 [2] of 60.37 ± 12.05 pg/mL and an IL-5 [3] of 27.91 ± 8.61 pg/mL.

`C[C@@H]1C[C@H]2[C@@H]3CCC4=CC(=O)C=C[C@]4(C)[C@@]3(F)[C@@H](O)C[C@]2(C)[C@@]1(O)C(=O)CO` [positive control group, dexamethasone] was tested, and the “Cell viability (%)” value [4] was 99.34 ± 0.14%, the inhibition at 0.1 µM [5] was 28.4 ± 8.77% and the inhibition at 0.1 µM [6] was 97.1 ± 12.9%.
